This note sets out measurements from patent publication US6916815B2, “C-6 modified indazolylpyrrolotriazines” (Bristol-Myers Squibb Company, priority 2002, dated 2005).

Structures can show the parent of a compound that is named as a salt.

Usually melting point stands for the temperature, or range, at which the solid turns liquid. Turning to `CCc1c(NC(=O)OC[C@@H]2COCCN2)cn2ncnc(Nc3ccc4c(cnn4Cc4ccccc4)c3)c12` (as salt: hydrochloride) [Example 1, [5-ethyl-4-[[(1-phenylmethyl)-1H-indazol-5-yl]amino]pyrrolo[2,1-f][1,2,4]triazin-6-yl]-carbamic acid, (3S)-3-morpholinylmethyl ester], the melting point was above 300 °C.
